Results as given in article PMC4384300, “Evaluation of the in vitro trypanocidal activity of methylated flavonoid constituents of Vitex simplicifolia leaves” (BMC Complementary and Alternative Medicine, 2015).
Values after ≈ are worked out from the molar mass of the structure shown. Read-outs that look alike come from different tables or passages of the source.

What was measured:
[1] = test system: Trypanosoma brucei rhodesiense STIB 900 bloodstream forms; assay: In vitro trypanocidal activity (Alamar Blue assay, 72 h); assay type: cell-based; settings: for IC50: Trypanosoma brucei, 72 h, read-out: T.b.rhodesiense IC50; for SI: selectivity index (IC50 of L6 cells/ IC50 of T.b.rhodesiense): L6 cells versus T. b. rhodesiense
Method: Minimum essential medium (50 μl) supplemented according to a standard method, with 2-mercaptoethanol and 15% heat inactivated horse serum was added to each well of a 96-well microtiter plate. Serial three-fold compound dilutions were prepared covering a range from 90 to 0.123 μg/ml. Then 10^4 bloodstream forms of Trypanosoma brucei rhodesiense STIB 900 (a clone of a population isolated in 1982 from a patient in Tanzania) in 50 μl culture medium were added to each well and the plate incubated at 37°C under a 5% CO2 atmosphere for 72 h. Ten microlitres of Alamar Blue (12.5 mg resazurin dissolved in 100 ml distilled water) were then added to each well and incubation continued for a further 2–4 h. The plate was then read in a Spectramax Gemini XS microplate fluorometer (Molecular Devices Cooperation, Sunnyvale, CA, USA) using an excitation wavelength of 536 nm and emission wavelength of 588 nm. Fluorescence development was measured and expressed as percentage of the control. Data were transferred into the graphic programme Softmax Pro (Molecular Devices) which calculated IC50 values. Melarsoprol was used as standard drug.

L6 cells = assay: Cytotoxicity in rat skeletal myoblast cell line (L6 cells); assay type: cell-based
Method: Cytotoxicity was determined using a rat skeletal myoblast cell line (L6 cells). The culture medium was RPMI 1640 supplemented with L-glutamine 2 mM, HEPES 5.95 g/l, NaHCO3 2 g/l and 10% foetal bovine serum. Podophyllotoxin (Sigma-Aldrich) was used as the reference drug. The assay was performed following the antitrypanosomal assay protocol as described above. The IC50 values were calculated from the sigmoidal growth inhibition curves using Softmax Pro software (Molecular Devices Corp.). Tests were done in three independent experiments in duplicate.

[2] = T. b. rhodesiense STIB 900 bloodstream forms, 72 h incubation, Alamar Blue
[3] = rat skeletal myoblast L6 cells, cytotoxicity, read-out: L6 Cells IC50

| Molecule | IC50 [1, 2] | IC50 (L6 cells; [3]) | also measured |
| --- | --- | --- | --- |
| 2-(3′,4′-dimethoxyphenyl)-7-hydroxychromen-4-one [Compound 7] | – | – | T.b.rhodesiense IC50 [1, 2]: 10.8 µg/mL; L6 Cells IC50 (L6 cells; rat skeletal myoblast L6 cells, cytotoxicity): 1.58 µg/mL |
| COc1cc(-c2oc3cc(O)cc(O)c3c(=O)c2OC)ccc1O [Compound 2, 2-(5′-methoxyphenyl) 4′,5,7-trihydroxy-3-methoxychromen-4-one] | 12.3 µg/mL (≈ 37.2 µM) | 6.64 µg/mL (≈ 20.1 µM) | – |
| COc1cc2oc(-c3ccc(O)cc3)c(OC)c(=O)c2c(O)c1OC [Compound 3, Penduletin] | – | 14 µg/mL (≈ 40.7 µM) | T.b.rhodesiense IC50 [1, 2]: 13.8 µg/mL |
| COc1cc(O)c2c(=O)c(OC)c(-c3ccc(O)cc3)oc2c1 [Compound 4, 2-(4′-hydroxyphenyl)-5-hydroxy 3,7-dimethoxy chromen-4-one] | 19.4 µg/mL (≈ 61.7 µM) | 28.2 µg/mL (≈ 89.7 µM) | SI: selectivity index (IC50 of L6 cells/ IC50 of T.b.rhodesiense) [1]: 1.4 |
| O=c1c(O)c(-c2ccc(O)cc2)oc2cc(O)cc(O)c12 [Compound 5, 2-(4-hydroxyphenyl)-3,5,7-trihydroxy chromen-4-one] | 23.7 µg/mL (≈ 82.8 µM) | 100 µg/mL (≈ 349 µM) | – |
| COc1ccc(-c2oc3cc(OC)c(OC)c(O)c3c(=O)c2OC)cc1OC [Compound 6, Artemetin] | 4.7 µg/mL (≈ 12.1 µM) | 46.2 µg/mL (≈ 119 µM) | SI: selectivity index (IC50 of L6 cells/ IC50 of T.b.rhodesiense) [1]: 9.8 |
| Nc1nc(N)nc(Nc2ccc([As]3SCC(CO)S3)cc2)n1 (stereo not shown) [Melarsoprol, reference compound] | – | – | IC50 [1]: 0.002 µg/mL |
| COc1cc([C@@H]2c3cc4c(cc3[C@H](O)[C@H]3COC(=O)[C@H]23)OCO4)cc(OC)c1OC [Podophyllotoxin, reference compound] | – | – | IC50 (L6 cells; Rattus norvegicus, L6, read-out: L6 Cells IC50): 0.005 µg/mL (≈ 0.0121 µM) |
